This is an account of results in US20240190880A1 (THE REGENTS OF THE UNIVERSITY OF MICHIGAN, priority 2021, published 2024).

One test addresses T1, ER (Homo sapiens, UniProt P03372).
T1 construct: host or cells: T47D and MCF7 human breast cancer cells
T1 sequence (P03372 1-595): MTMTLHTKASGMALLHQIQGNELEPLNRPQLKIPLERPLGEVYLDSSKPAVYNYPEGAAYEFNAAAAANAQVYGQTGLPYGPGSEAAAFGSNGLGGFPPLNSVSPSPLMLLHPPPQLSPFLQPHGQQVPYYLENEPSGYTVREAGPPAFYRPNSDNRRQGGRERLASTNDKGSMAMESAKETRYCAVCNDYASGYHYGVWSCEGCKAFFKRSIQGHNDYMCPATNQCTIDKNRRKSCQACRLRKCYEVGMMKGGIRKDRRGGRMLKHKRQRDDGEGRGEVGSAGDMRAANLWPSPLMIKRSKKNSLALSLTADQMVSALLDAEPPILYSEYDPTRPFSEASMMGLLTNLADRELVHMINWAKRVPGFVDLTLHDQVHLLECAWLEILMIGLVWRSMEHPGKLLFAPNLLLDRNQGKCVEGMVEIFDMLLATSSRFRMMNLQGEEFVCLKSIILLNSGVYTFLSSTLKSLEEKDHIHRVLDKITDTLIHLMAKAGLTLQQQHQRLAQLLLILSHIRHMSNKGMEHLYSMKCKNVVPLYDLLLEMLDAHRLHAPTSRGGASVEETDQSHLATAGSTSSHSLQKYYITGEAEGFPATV
The experiment in a line: ER degradation activity, in-cell western blot analysis in T47D cells. The format is cell-based. The settings on record: 16 hours, Table A does not say which cell line (T47D or MCF7), read-out: Potency (DC50). The essentials: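 ER protein remaining after 16 h compound exposure is quantified in T47D cells by in-cell western, with a no-primary-antibody background control. Values are percentages of DMSO-treated signal.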
As to `O=C1CCC(N2C(=O)c3cc4c(cc3C2=O)CN(CC(=O)N2CC3(CCN(c5ccc([C@@H]6c7ccc(O)cc7CC[C@@H]6c6ccccc6)cc5)CC3)C2)C4)C(=O)N1` (mixture of isomers) [E 9, Rac-2-(2,6-dioxopiperidin-3-yl)-6-(2-(7-(4-((1R,2S)-6-hydroxy-2-phenyl-1,2,3,4-tetrahydronaphthalen-1-yl)phenyl)-2,7-diazaspiro[3.5]nonan-2-yl)-2-oxoethyl)-6,7-dihydropyrrolo[3,4-f]isoindole-1,3(2H,5H)-dione], the DC50 (usually the midpoint of the concentration-degradation curve) is less than 10 nM. On to `C[C@@H]1Cc2c([nH]c3ccccc23)[C@@H](c2c(F)cc(N3CCC4(CCN(CC5Cc6cc7c(cc6C5)C(=O)N(C5CCC(=O)NC5=O)C7=O)CC4)CC3)cc2F)N1CC(F)(F)F` (stereo partly drawn) [E 231, 6-((9-(3,5-difluoro-4-((1R,3R)-3-methyl-2-(2,2,2-trifluoroethyl)-2,3,4,9-tetrahydro-1H-pyrido[3,4-b]indol-1-yl)phenyl)-3,9-diazaspiro[5.5]undecan-3-yl)methyl)-2-(2,6-dioxopiperidin-3-yl)-6,7-dihydrocyclopenta[f]isoindole-1,3(2H,5H)-dione], for which the DC50 is more than 100 nM. `C[C@@H]1Cc2cc(O)ccc2[C@@H](c2c(F)cc(N3CCC4(CCN(C(=O)CN5Cc6cc7c(cc6C5)C(=O)N(C5CCC(=O)NC5=O)C7)C4)CC3)cc2F)N1CC(C)(F)F` (some centres unmarked) [E 138]: the DC50 lay within 10 to 100 nM. As to `C[C@@H]1Cc2c([nH]c3ccccc23)[C@@H](c2c(F)cc(N3CCC(CN4CC(N5Cc6cc7c(cc6C5)C(=O)N(C5CCC(=O)NC5=O)C7=O)C4)CC3)cc2F)N1CC(F)F` (stereo partly drawn) [E 50, 6-(1-((1-(4-((1R,3R)-2-(2,2-difluoroethyl)-3-methyl-2,3,4,9-tetrahydro-1H-pyrido[3,4-b]indol-1-yl)-3,5-difluorophenyl)piperidin-4-yl)methyl)azetidin-3-yl)-2-(2,6-dioxopiperidin-3-yl)-6,7-dihydropyrrolo[3,4-f]isoindole-1,3(2H,5H)-dione], the DC50 was more than 100 nM.

With `O=C1CCC(N2C(=O)c3cc4c(cc3C2=O)CN(CC(=O)N2CCC3(CC2)CCN(c2ccc([C@@H]5c6ccc(O)cc6CC[C@@H]5c5ccccc5)cn2)CC3)C4)C(=O)N1` (mixture of isomers) [E 297, Rac-2-(2,6-dioxopiperidin-3-yl)-6-(2-(9-(5-((1S,2S)-6-hydroxy-2-phenyl-1,2,3,4-tetrahydronaphthalen-1-yl)pyridin-2-yl)-3,9-diazaspiro[5.5]undecan-3-yl)-2-oxoethyl)-6,7-dihydropyrrolo[3,4-f]isoindole-1,3(2H,5H)-dione], the DC50 was more than 100 nM. On to `O=C1CCC(N2C(=O)c3cc4c(cc3C2=O)CN(C2CN(C(=O)C3CCN(c5ccc([C@@H]6c7ccc(O)cc7CC[C@@H]6c6ccccc6)cc5)CC3)C2)C4)C(=O)N1` (mixture of isomers) [E 15, Rac-2-(2,6-dioxopiperidin-3-yl)-6-(1-(1-(4-((1R,2S)-6-hydroxy-2-phenyl-1,2,3,4-tetrahydronaphthalen-1-yl)phenyl)piperidine-4-carbonyl)azetidin-3-yl)-6,7-dihydropyrrolo[3,4-f]isoindole-1,3(2H,5H)-dione], for which the 50% degradation concentration (DC50) was 10 to 100 nM. In the case of `CCC(=C(c1ccc(O)cc1)c1ccc(N2CCC3(CCN(C(=O)CN4Cc5cc6c(cc5C4)C(=O)N(C4CCC(=O)NC4=O)C6=O)CC3)CC2)cc1)c1ccccc1` (centres unmarked) [E 188, 2-(2,6-dioxopiperidin-3-yl)-6-(2-(9-(4-(1-(4-hydroxyphenyl)-2-phenylbut-1-en-1-yl)phenyl)-3,9-diazaspiro[5.5]undecan-3-yl)-2-oxoethyl)-6,7-dihydropyrrolo[3,4-f]isoindole-1,3(2H,5H)-dione], the DC50 lay in the range of 10 to 100 nM. Regarding `C[C@@H]1Cc2c([nH]c3ccccc23)[C@@H](c2c(F)cc(N3CCC(N4CC(C(=O)N5Cc6cc7c(cc6C5)C(=O)N(C5CCC(=O)NC5=O)C7=O)C4)CC3)cc2F)N1CC(F)F` (stereo partly drawn) [E 119, 6-(1-(1-(4-((1R,3R)-2-(2,2-difluoroethyl)-3-methyl-2,3,4,9-tetrahydro-1H-pyrido[3,4-b]indol-1-yl)-3,5-difluorophenyl)piperidin-4-yl)azetidine-3-carbonyl)-2-(2,6-dioxopiperidin-3-yl)-6,7-dihydropyrrolo[3,4-f]isoindole-1,3(2H,5H)-dione], the DC50 was more than 100 nM.

For the molecule `O=C1CCC(N2C(=O)c3cc4c(cc3C2=O)CCN(CC(=O)N2CC3(CCN(c5ccc([C@@H]6c7ccc(O)cc7CC[C@@H]6c6ccc(F)cc6)cc5)CC3)C2)CC4)C(=O)N1` (stereo partly drawn) [E 184, 2-(2,6-dioxopiperidin-3-yl)-7-(2-(7-(4-((1R,2S)-2-(4-fluorophenyl)-6-hydroxy-1,2,3,4-tetrahydronaphthalen-1-yl)phenyl)-2,7-diazaspiro[3.5]nonan-2-yl)-2-oxoethyl)-6,7,8,9-tetrahydroazepino[4,5-f]isoindole-1,3(2H,5H)-dione], the DC50 was more than 100 nM. Still for that read-out and setting: for `C[C@@H]1Cc2c([nH]c3ccccc23)[C@@H](c2c(F)cc(C(=O)N3CCC4(CCC(CN5Cc6cc7c(cc6C5)C(=O)N(C5CCC(=O)NC5=O)C7=O)CC4)CC3)cc2F)N1CC(F)F` (stereo partly drawn) [E 378, 6-((3-(4-((1R,3R)-2-(2,2-difluoroethyl)-3-methyl-2,3,4,9-tetrahydro-1H-pyrido[3,4-b]indol-1-yl)-3,5-difluorobenzoyl)-3-azaspiro[5.5]undecan-9-yl)methyl)-2-(2,6-dioxopiperidin-3-yl)-6,7-dihydropyrrolo[3,4-f]isoindole-1,3(2H,5H)-dione] the value was more than 100 nM; for `C[C@@H]1Cc2c([nH]c3ccccc23)[C@@H](c2c(F)cc(N3CC4(CN(CC(=O)N5Cc6cc7c(cc6C5)C(=O)N(C5CCC(=O)NC5=O)C7)C4)C3)cc2F)N1CC(F)F` (stereo partly drawn) [E 65, 3-(6-(2-(6-(4-((1R,3R)-2-(2,2-difluoroethyl)-3-methyl-2,3,4,9-tetrahydro-1H-pyrido[3,4-b]indol-1-yl)-3,5-difluorophenyl)-2,6-diazaspiro[3.3]heptan-2-yl)acetyl)-1-oxo-3,5,6,7-tetrahydropyrrolo[3,4-f]isoindol-2(1H)-yl)piperidine-2,6-dione], less than 10 nM. In the case of `O=C1CCC(N2C(=O)c3cc4c(cc3C2=O)CN(CC(=O)N2CCC[C@H](Oc3ccc([C@@H]5c6ccc(O)cc6CC[C@@H]5c5ccc(F)cc5)cc3)C2)C4)C(=O)N1` (mixture of isomers) [E 157, Rac-2-(2,6-dioxopiperidin-3-yl)-6-(2-((S)-3-(4-((1R,2S)-2-(4-fluorophenyl)-6-hydroxy-1,2,3,4-tetrahydronaphthalen-1-yl)phenoxy)piperidin-1-yl)-2-oxoethyl)-6,7-dihydropyrrolo[3,4-f]isoindole-1,3(2H,5H)-dione], the DC50 was more than 100 nM. On the same count and under the same terms, for `O=C1CCC(N2Cc3cc4c(cc3C2=O)CN(CC(=O)N2CCC3(CC2)CN(c2ccc([C@@H]5c6ccc(O)cc6CC[C@@H]5c5ccccc5)cc2)C3)C4)C(=O)N1` (mixture of isomers) [E 5, rac-3-(6-(2-(2-(4-((1R,2S)-6-hydroxy-2-phenyl-1,2,3,4-tetrahydronaphthalen-1-yl)phenyl)-2,7-diazaspiro[3.5]nonan-7-yl)-2-oxoethyl)-1-oxo-3,5,6,7-tetrahydropyrrolo[3,4-f]isoindol-2(1H)-yl)piperidine-2,6-dione] the value was less than 10 nM.

The test is the same for the next values; noted with them: compounds 16 hours, Table A does not say whether T47D or MCF7, read-out: Potency (DC50).
Take `C[C@@H]1Cc2c(ccc3[nH]ncc23)[C@@H](c2c(F)cc(NC3CN(C(=O)[C@H]4CC[C@@H](N5Cc6cc7c(cc6C5)C(=O)N(C5CCC(=O)NC5=O)C7=O)CC4)C3)cc2F)N1CC(F)F` (some centres unmarked) [E 424]: the DC50 was 10 to 100 nM. Still for that read-out and setting: for `O=C1CCC(N2C(=O)c3cc4c(cc3C2=O)CN(CC2CCC3(CC2)CCN(C(=O)c2ccc([C@@H]5c6ccc(O)cc6CC[C@@H]5c5ccccc5)cc2)CC3)C4)C(=O)N1` (stereo partly drawn) [E 492, 2-(2,6-dioxopiperidin-3-yl)-6-((3-(4-((1R,2S)-6-hydroxy-2-phenyl-1,2,3,4-tetrahydronaphthalen-1-yl)benzoyl)-3-azaspiro[5.5]undecan-9-yl)methyl)-6,7-dihydropyrrolo[3,4-f]isoindole-1,3(2H,5H)-dione] the value was more than 100 nM. As for `C[C@@H]1Cc2c(ccc3[nH]ncc23)[C@@H](c2c(F)cc(N3CCC(C(=O)N4C5CCC4CC(N4Cc6cc7c(cc6C4)C(=O)N(C4CCC(=O)NC4=O)C7=O)C5)CC3)cc2F)N1CC(F)F` (some centres unmarked) [E 469], the DC50 was in the range of 10 to 100 nM. On to `C[C@@H]1Cc2cc(O)ccc2[C@@H](c2c(F)cc(N3CCC(C(=O)N4CCC(N5Cc6cc7c(cc6C5)C(=O)N(C5CCC(=O)NC5=O)C7=O)CC4)CC3)cc2F)N1CC(F)F` (stereo partly drawn) [E 463, 6-(1-(1-(4-((1S,3R)-2-(2,2-difluoroethyl)-6-hydroxy-3-methyl-1,2,3,4-tetrahydroisoquinolin-1-yl)-3,5-difluorophenyl)piperidine-4-carbonyl)piperidin-4-yl)-2-(2,6-dioxopiperidin-3-yl)-6,7-dihydropyrrolo[3,4-f]isoindole-1,3(2H,5H)-dione], for which the 50% degradation concentration (DC50) was less than 10 nM.
